In patent US20240067693A1, “POLYPEPTIDES AND USES THEREOF” (MEDIMMUNE LIMITED, priority 2020, published 2024):
Numbered stars: 1 amine (or outer) side, 2 acyl side, 3 side chain; on linkers, the order of the positions; unused ones are H or OH. Bridge positions count the residues as written; N and C are the ends. Square brackets hold non-standard residues; d marks the D form. Side chains are listed from the residue outwards. Peptide text beside a SMILES is read from it. * marks the point of attachment. C18 diacid = O=C(O)CCCCCCCCCCCCCCCCC(=O)*; γGlu = O=C(O)[C@H](CCC(=O)[*:2])N[*:1]; Aib = CC(C)(N)C(=O)O

Tests used:
[1] = biological target: T1, human calcitonin receptor (hCTR) (Homo sapiens, UniProt P30988); test: cAMP production in 1321N1 cells with stable recombinant expression of human calcitonin receptor (hCTR); assay type: cell-based; conditions: cAMP, 1321N1 cells, assay buffer with 0.1% BSA; read-out: EC50 (pM) hCTR
T1 construct: expressed in transfected cells
T1 sequence (P30988 25-474): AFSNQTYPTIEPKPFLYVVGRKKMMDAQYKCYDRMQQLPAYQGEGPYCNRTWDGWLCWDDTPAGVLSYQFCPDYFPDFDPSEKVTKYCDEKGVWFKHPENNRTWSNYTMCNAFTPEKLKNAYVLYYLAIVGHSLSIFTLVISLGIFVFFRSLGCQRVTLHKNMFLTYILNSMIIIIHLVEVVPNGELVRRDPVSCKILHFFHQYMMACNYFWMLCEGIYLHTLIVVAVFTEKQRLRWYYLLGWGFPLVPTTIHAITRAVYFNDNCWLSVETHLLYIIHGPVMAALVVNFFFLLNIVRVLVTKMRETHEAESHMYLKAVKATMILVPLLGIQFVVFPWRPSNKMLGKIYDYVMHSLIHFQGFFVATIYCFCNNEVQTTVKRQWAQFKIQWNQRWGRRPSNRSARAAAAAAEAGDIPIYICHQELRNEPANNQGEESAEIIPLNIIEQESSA
Procedure, shortened: (§1)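 Thawed cells in HBSS/0.1% BSA/25 mM HEPES pH 7.4 with 0.5 mM IBMX were incubated with peptides 30 min at room temperature; cAMP read by HTRF. EC50 from 4-parameter fit of % activation relative to maximal amylin or calcitonin effect.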

[2] = biological target: T2, human amylin receptor (calcitonin receptor co-expressed with receptor activity modifying protein, RAMP3) (hAMYR3) (Homo sapiens, UniProt O60896+P30988); test: cAMP production in 1321N1 cells with stable recombinant expression of human amylin receptor (hAMYR3); assay type: cell-based; conditions: for Ratio (selectivity hAMYR vs hCTR, ratio of EC50 values at the two receptors): EC50 hCTR / EC50 hAMYR3; for EC50: cAMP, 1321N1 cells, assay buffer with 0.1% BSA, read-out: EC50 (pM) hAMYR3
T2 construct: expressed in transfected cells
T2 sequence (P30988 25-474): T1 sequence (P30988 25-474)
T2 sequence (O60896 24-148 partner): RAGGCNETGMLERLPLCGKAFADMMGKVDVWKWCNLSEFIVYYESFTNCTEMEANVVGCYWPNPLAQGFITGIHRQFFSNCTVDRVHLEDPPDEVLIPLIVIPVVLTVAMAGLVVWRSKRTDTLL
Procedure, shortened: as §1

| EC50 [1] [pM] | Ratio (selectivity hAMYR vs hCTR, ratio of EC50 values at the two receptors) [2] | EC50 [2] [pM] | Compound |
| --- | --- | --- | --- |
| 1500 | 6.3 | 238 | CC[C@H](C)[C@H](NC(=O)[C@@H]1CCCN1C(=O)CNC(=O)[C@H](Cc1ccccc1)NC(=O)[C@H](CC(N)=O)NC(=O)[C@H](CCCNC(=N)N)NC(=O)[C@H](CO)NC(=O)[C@H](CO)NC(=O)[C@H](Cc1c[nH]cn1)NC(=O)C(C)(C)NC(=O)[C@H](CC(C)C)NC(=O)[C@H](Cc1ccccc1)NC(=O)[C@H](CC(N)=O)NC(=O)[C@H](C)NC(=O)[C@H](CC(C)C)NC(=O)[C@H](CCCNC(=N)N)NC(=O)[C@H](CCC(N)=O)NC(=O)[C@@H](NC(=O)[C@H](C)NC(=O)[C@@H]1CSSC[C@H](NC(=O)[C@H](CCCCN)NC(=O)[C@@H](N)CCCCNC(=O)CC[C@H](NC(=O)CCCCCCCCCCCCCCCCC(=O)O)C(=O)O)C(=O)N[C@@H](CC(N)=O)C(=O)N[C@@H]([C@@H](C)O)C(=O)N[C@@H](C)C(=O)N[C@@H]([C@@H](C)O)C(=O)N1)[C@@H](C)O)C(=O)N[C@@H](CC(C)C)C(=O)N1CCC[C@H]1C(=O)N1CCC[C@H]1C(=O)N[C@H](C(=O)N[C@@H](CC(N)=O)C(=O)N[C@H](C(=O)NCC(=O)N[C@@H](CO)C(=O)N[C@@H](CC(N)=O)C(=O)N[C@H](C(=O)N[C@@H](Cc1ccc(O)cc1)C(N)=O)[C@@H](C)O)C(C)C)[C@@H](C)O [Peptide 137] (H-K([γGlu-C18 diacid])KCNTATCATQRLANFL[Aib]HSSRNFGPILPPTNVGSNTY-NH2; disulfide 3-8; N-terminus assumed) |
| 2510 | 4.1 | 612 | CC[C@H](C)[C@H](NC(=O)[C@@H]1CCCN1C(=O)CNC(=O)[C@H](Cc1ccccc1)NC(=O)[C@H](CC(N)=O)NC(=O)[C@@H]1CCCN1C(=O)[C@H](CO)NC(=O)[C@H](CO)NC(=O)[C@H](Cc1c[nH]cn1)NC(=O)C(C)(C)NC(=O)[C@H](CC(C)C)NC(=O)[C@H](Cc1ccccc1)NC(=O)[C@H](CC(N)=O)NC(=O)[C@H](C)NC(=O)[C@H](CC(C)C)NC(=O)[C@H](CCCNC(=N)N)NC(=O)[C@H](CCC(N)=O)NC(=O)[C@@H](NC(=O)[C@H](C)NC(=O)[C@@H]1CSSC[C@H](NC(=O)[C@H](CCCCN)NC(=O)[C@@H](N)CCCCNC(=O)CC[C@H](NC(=O)CCCCCCCCCCCCCCCCC(=O)O)C(=O)O)C(=O)N[C@@H](CC(N)=O)C(=O)N[C@@H]([C@@H](C)O)C(=O)N[C@@H](C)C(=O)N[C@@H]([C@@H](C)O)C(=O)N1)[C@@H](C)O)C(=O)N[C@@H](CC(C)C)C(=O)N1CCC[C@H]1C(=O)N1CCC[C@H]1C(=O)N[C@H](C(=O)N[C@@H](CCC(=O)O)C(=O)N[C@H](C(=O)NCC(=O)N[C@@H](CO)C(=O)N[C@@H](CC(N)=O)C(=O)N[C@H](C(=O)N[C@@H](Cc1ccc(O)cc1)C(N)=O)[C@@H](C)O)C(C)C)[C@@H](C)O [Peptide 138] (H-K([γGlu-C18 diacid])KCNTATCATQRLANFL[Aib]HSSPNFGPILPPTEVGSNTY-NH2; disulfide 3-8) |
| 1040 | 3.7 | 285 | CC[C@H](C)[C@H](NC(=O)[C@@H]1CCCN1C(=O)CNC(=O)[C@H](Cc1ccccc1)NC(=O)[C@H](CC(N)=O)NC(=O)[C@@H]1CCCN1C(=O)[C@H](CO)NC(=O)[C@H](CO)NC(=O)[C@H](Cc1c[nH]cn1)NC(=O)C(C)(C)NC(=O)[C@H](CC(C)C)NC(=O)[C@H](Cc1ccccc1)NC(=O)[C@H](CC(N)=O)NC(=O)[C@H](C)NC(=O)[C@H](CC(C)C)NC(=O)[C@H](CCCNC(=N)N)NC(=O)[C@H](CCC(N)=O)NC(=O)[C@@H](NC(=O)[C@H](C)NC(=O)[C@@H]1CSSC[C@H](NC(=O)[C@H](CCCCN)NC(=O)[C@@H](N)CCCCNC(=O)CC[C@H](NC(=O)CCCCCCCCCCCCCCCCC(=O)O)C(=O)O)C(=O)N[C@@H](CC(N)=O)C(=O)N[C@@H]([C@@H](C)O)C(=O)N[C@@H](C)C(=O)N[C@@H]([C@@H](C)O)C(=O)N1)[C@@H](C)O)C(=O)N[C@@H](CC(C)C)C(=O)N1CCC[C@H]1C(=O)N1CCC[C@H]1C(=O)N[C@H](C(=O)N[C@@H](CC(N)=O)C(=O)N[C@H](C(=O)NCC(=O)N[C@@H](CO)C(=O)N[C@@H](CCC(=O)O)C(=O)N[C@H](C(=O)N[C@@H](Cc1ccc(O)cc1)C(N)=O)[C@@H](C)O)C(C)C)[C@@H](C)O [Peptide 139] (H-K([γGlu-C18 diacid])KCNTATCATQRLANFL[Aib]HSSPNFGPILPPTNVGSETY-NH2; disulfide 3-8; N-terminus assumed) |
| 3950 | 9.5 | 414 | CC[C@H](C)[C@H](NC(=O)[C@@H]1CCCN1C(=O)CNC(=O)[C@H](Cc1ccccc1)NC(=O)[C@H](CC(N)=O)NC(=O)[C@H](CC(N)=O)NC(=O)[C@H](CO)NC(=O)[C@H](CO)NC(=O)[C@H](Cc1c[nH]cn1)NC(=O)C(C)(C)NC(=O)[C@H](CC(C)C)NC(=O)[C@H](Cc1ccccc1)NC(=O)[C@H](CC(N)=O)NC(=O)[C@H](C)NC(=O)[C@H](CC(C)C)NC(=O)[C@H](CCCNC(=N)N)NC(=O)[C@H](CCC(N)=O)NC(=O)[C@@H](NC(=O)[C@H](C)NC(=O)[C@@H]1CSSC[C@H](NC(=O)[C@H](CCCCN)NC(=O)[C@@H](N)CCCCNC(=O)CC[C@H](NC(=O)CCCCCCCCCCCCCCCCC(=O)O)C(=O)O)C(=O)N[C@@H](CC(N)=O)C(=O)N[C@@H]([C@@H](C)O)C(=O)N[C@@H](C)C(=O)N[C@@H]([C@@H](C)O)C(=O)N1)[C@@H](C)O)C(=O)N[C@@H](CC(C)C)C(=O)N1CCC[C@H]1C(=O)N1CCC[C@H]1C(=O)N[C@H](C(=O)N[C@@H](CC(N)=O)C(=O)N[C@H](C(=O)NCC(=O)N[C@@H](CO)C(=O)N[C@@H](CCCNC(=N)N)C(=O)N[C@H](C(=O)N[C@@H](Cc1ccc(O)cc1)C(N)=O)[C@@H](C)O)C(C)C)[C@@H](C)O [Peptide 141] (H-K([γGlu-C18 diacid])KCNTATCATQRLANFL[Aib]HSSNNFGPILPPTNVGSRTY-NH2; disulfide 3-8; N-terminus assumed) |
| 2270 | 3.1 | 730 | CC[C@H](C)[C@H](NC(=O)[C@@H]1CCCN1C(=O)CNC(=O)[C@H](Cc1ccccc1)NC(=O)[C@H](CC(N)=O)NC(=O)[C@H](CC(N)=O)NC(=O)[C@H](CO)NC(=O)[C@H](CO)NC(=O)[C@H](Cc1c[nH]cn1)NC(=O)C(C)(C)NC(=O)[C@H](CC(C)C)NC(=O)[C@H](Cc1ccccc1)NC(=O)[C@H](CC(N)=O)NC(=O)[C@H](C)NC(=O)[C@H](CC(C)C)NC(=O)[C@H](CCCNC(=N)N)NC(=O)[C@H](CCC(N)=O)NC(=O)[C@@H](NC(=O)[C@H](C)NC(=O)[C@@H]1CSSC[C@H](NC(=O)[C@H](CCCCN)NC(=O)[C@@H](N)CCCCNC(=O)CC[C@H](NC(=O)CCCCCCCCCCCCCCCCC(=O)O)C(=O)O)C(=O)N[C@@H](CC(N)=O)C(=O)N[C@@H]([C@@H](C)O)C(=O)N[C@@H](C)C(=O)N[C@@H]([C@@H](C)O)C(=O)N1)[C@@H](C)O)C(=O)N[C@@H](CC(C)C)C(=O)N1CCC[C@H]1C(=O)N1CCC[C@H]1C(=O)N[C@H](C(=O)N[C@@H](CC(N)=O)C(=O)N[C@H](C(=O)NCC(=O)N[C@@H](CO)C(=O)N[C@@H](CCC(=O)O)C(=O)N[C@H](C(=O)N[C@@H](Cc1ccc(O)cc1)C(N)=O)[C@@H](C)O)C(C)C)[C@@H](C)O [Peptide 142] (H-K([γGlu-C18 diacid])KCNTATCATQRLANFL[Aib]HSSNNFGPILPPTNVGSETY-NH2; disulfide 3-8; N-terminus assumed) |
| 6940 | 11.7 | 592 | CC[C@H](C)[C@H](NC(=O)[C@@H]1CCCN1C(=O)CNC(=O)[C@H](Cc1ccccc1)NC(=O)[C@H](CC(N)=O)NC(=O)[C@H](CC(N)=O)NC(=O)[C@H](CO)NC(=O)[C@H](CO)NC(=O)[C@H](Cc1c[nH]cn1)NC(=O)C(C)(C)NC(=O)[C@H](CC(C)C)NC(=O)[C@H](Cc1ccccc1)NC(=O)[C@H](CC(N)=O)NC(=O)[C@H](C)NC(=O)[C@H](CC(C)C)NC(=O)[C@H](CCCNC(=N)N)NC(=O)[C@H](CCC(N)=O)NC(=O)[C@@H](NC(=O)[C@H](C)NC(=O)[C@@H]1CSSC[C@H](NC(=O)[C@H](CCCCN)NC(=O)CNC(=O)CNC(=O)[C@@H](N)CCCCNC(=O)CC[C@H](NC(=O)CCCCCCCCCCCCCCCCC(=O)O)C(=O)O)C(=O)N[C@@H](CC(N)=O)C(=O)N[C@@H]([C@@H](C)O)C(=O)N[C@@H](C)C(=O)N[C@@H]([C@@H](C)O)C(=O)N1)[C@@H](C)O)C(=O)N[C@@H](CC(C)C)C(=O)N1CCC[C@H]1C(=O)N1CCC[C@H]1C(=O)N[C@H](C(=O)N[C@@H](CC(N)=O)C(=O)N[C@H](C(=O)NCC(=O)N[C@@H](CO)C(=O)N[C@@H](CC(N)=O)C(=O)N[C@H](C(=O)N[C@@H](Cc1ccc(O)cc1)C(N)=O)[C@@H](C)O)C(C)C)[C@@H](C)O [Peptide 143] (H-K([γGlu-C18 diacid])GGKCNTATCATQRLANFL[Aib]HSSNNFGPILPPTNVGSNTY-NH2; disulfide 5-10; N-terminus assumed) |
